Measured values reported in ChEMBL document CHEMBL1201862, “PubChem BioAssay data set” (2004).
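Exposure lasted 48 hours, with cells grown in 96-well plates and compounds tested at five concentrations. GI50 is the concentration that inhibits growth by half.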 Activity calls are given as the source filed them. Cut-off read from the data, not from the text of the source: active = GI50 up to about 1.1 µM and inactive = higher.

Key:
Assay in all cases: DTP human tumour cell line panel, 48 h
[1] = system: KM12
[2] = system: M14
[3] = system: HCT-15
[4] = system: SK-MEL-5
[5] = system: PC-3
[6] = system: ACHN
[7] = system: U-251
[8] = system: BT-549
[9] = system: NCI-H522
[10] = system: NCI-H226
[11] = system: A549
[12] = system: SW-620
[13] = system: SN12C
[14] = system: SNB-75
[15] = system: CAKI-1
[16] = system: OVCAR-8
[17] = system: COLO 205
[18] = system: UACC-62
[19] = system: HT-29
[20] = system: SF-295

| Structure (SMILES) | GI50 [1] | GI50 [2] | GI50 [3] [µM] | GI50 [4] | GI50 [5] | GI50 [6] | GI50 [7] | GI50 [8] | GI50 [9] | GI50 [10] | GI50 [11] | GI50 [12] | GI50 [13] | GI50 [14] | GI50 [15] | GI50 [16] | GI50 [17] | GI50 [18] | GI50 [19] | GI50 [20] |
| --- | --- | --- | --- | --- | --- | --- | --- | --- | --- | --- | --- | --- | --- | --- | --- | --- | --- | --- | --- | --- |
| CCCCC(C(=O)NCCNC(=O)CCC(=O)N(C)O)C(=O)NCCNC(=O)CCC(=O)N(C)O | > 100 µM (inactive) | > 100 µM (inactive) | > 100 | > 100 µM (inactive) | > 100 µM (inactive) | > 100 µM (inactive) | > 100 µM (inactive) | > 100 µM (inactive) | > 100 µM (inactive) | > 100 µM (inactive) | > 100 µM (inactive) | > 100 µM (inactive) | > 100 µM (inactive) | > 100 µM (inactive) | > 100 µM (inactive) | > 100 µM (inactive) | > 100 µM (inactive) | > 100 µM (inactive) | > 100 µM (inactive) | > 100 µM (inactive) |
| COC1(C)CP(=O)(OC(C)C)CC(C)=C1Cl (stereo not given) | 15.5 µM (inactive) | 13.7 µM (inactive) | 12.3 | 12.4 µM (inactive) | 25.5 µM (inactive) | 18.4 µM (inactive) | 10.6 µM (inactive) | 12.7 µM (inactive) | 9.62 µM (inactive) | 12.5 µM (inactive) | 17.1 µM (inactive) | 14.4 µM (inactive) | 15.2 µM (inactive) | 46.9 µM (inactive) | 17 µM (inactive) | 16.1 µM (inactive) | 14.5 µM (inactive) | 10.2 µM (inactive) | 12.3 µM (inactive) | 11.8 µM (inactive) |
| Cn1c2ccccc2c2c3c(c4c5ccccc5n(C5OC(CO)C(O)C(O)C5O)c4c21)C(=O)OC3=O (stereo not given) | > 100 µM (inactive) | > 100 µM (inactive) | > 100 | > 100 µM (inactive) | > 100 µM (inactive) | > 100 µM (inactive) | > 100 µM (inactive) | > 100 µM (inactive) | > 100 µM (inactive) | > 100 µM (inactive) | > 100 µM (inactive) | > 100 µM (inactive) | > 100 µM (inactive) | 87.3 µM (inactive) | > 100 µM (inactive) | > 100 µM (inactive) | > 100 µM (inactive) | > 100 µM (inactive) | > 100 µM (inactive) | > 100 µM (inactive) |
| CCN(CCCl)CCCCNc1c2ccccc2nc2ccc(OC)cc12 | 0.356 µM (active) | 1.12 µM (inactive) | 0.752 | 0.373 µM (active) | 0.216 µM (active) | 0.178 µM (active) | 0.239 µM (active) | 1.38 µM (inactive) | 0.208 µM (active) | 0.102 µM (active) | 0.177 µM (active) | 0.0664 µM (active) | < 0.023 µM (active) | 0.472 µM (active) | 0.394 µM (active) | 0.305 µM (active) | 0.258 µM (active) | 0.171 µM (active) | 0.13 µM (active) | 0.259 µM (active) |
| CC[C@H](NC(=O)OC(C)(C)C)C(=O)NCP(=O)(OCc1ccc([N+](=O)[O-])cc1)OCc1ccc([N+](=O)[O-])cc1 | 26.8 µM (inactive) | 30.9 µM (inactive) | 26.9 | 13.5 µM (inactive) | 34.8 µM (inactive) | 23 µM (inactive) | 21.6 µM (inactive) | 31.7 µM (inactive) | 31.6 µM (inactive) | 39.4 µM (inactive) | 27.7 µM (inactive) | 40.6 µM (inactive) | 29.1 µM (inactive) | 38.9 µM (inactive) | 43.2 µM (inactive) | 30.5 µM (inactive) | 16.5 µM (inactive) | 18.3 µM (inactive) | 17.7 µM (inactive) | 13.7 µM (inactive) |
| C=C(C)CC1(O)C(=O)C(OCC)=C1OCC (stereo not given) | > 100 µM (inactive) | > 100 µM (inactive) | > 100 | > 100 µM (inactive) | > 100 µM (inactive) | > 100 µM (inactive) | > 100 µM (inactive) | > 100 µM (inactive) | > 100 µM (inactive) | > 100 µM (inactive) | > 100 µM (inactive) | > 100 µM (inactive) | > 100 µM (inactive) | 79.6 µM (inactive) | > 100 µM (inactive) | > 100 µM (inactive) | > 100 µM (inactive) | > 100 µM (inactive) | > 100 µM (inactive) | > 100 µM (inactive) |
| O=c1[nH]c(=O)n(C/C=C/CBr)nc1Br | 14.9 µM (inactive) | 13.9 µM (inactive) | 14.5 | 13.2 µM (inactive) | 12.2 µM (inactive) | 13 µM (inactive) | 9.4 µM (inactive) | 14.5 µM (inactive) | 4.33 µM (inactive) | 13.9 µM (inactive) | 15.8 µM (inactive) | 14.4 µM (inactive) | 14.8 µM (inactive) | 12 µM (inactive) | 11.9 µM (inactive) | 14.5 µM (inactive) | 14.2 µM (inactive) | 13.8 µM (inactive) | 12.9 µM (inactive) | 17.2 µM (inactive) |
| COc1cc2c(cc1OCc1ccccc1)NC(=S)[C@@H]1CCCN1C2=S | 30.1 µM (inactive) | > 100 µM (inactive) | > 100 | 62.8 µM (inactive) | > 100 µM (inactive) | > 100 µM (inactive) | 49.4 µM (inactive) | > 100 µM (inactive) | 71.6 µM (inactive) | 93.5 µM (inactive) | 73.8 µM (inactive) | > 100 µM (inactive) | > 100 µM (inactive) | 15 µM (inactive) | > 100 µM (inactive) | 12.3 µM (inactive) | > 100 µM (inactive) | > 100 µM (inactive) | 18.2 µM (inactive) | 37.5 µM (inactive) |
| Cc1ccc(S(=O)(=O)n2cncc2CO)cc1 | > 100 µM (inactive) | > 100 µM (inactive) | > 100 | > 100 µM (inactive) | > 100 µM (inactive) | > 100 µM (inactive) | > 100 µM (inactive) | > 100 µM (inactive) | > 100 µM (inactive) | > 100 µM (inactive) | > 100 µM (inactive) | > 100 µM (inactive) | > 100 µM (inactive) | > 100 µM (inactive) | > 100 µM (inactive) | > 100 µM (inactive) | > 100 µM (inactive) | > 100 µM (inactive) | > 100 µM (inactive) | > 100 µM (inactive) |
